# Earlier results in patent publication US20220288056A1, “PHARMACEUTICAL COMPOSITION CONTAINING NITROXOLINE, NITROXOLINE ORAL SOLID TABLET, PREPARATION METHOD THEREFOR AND USE THEREOF” (Jiangsu Yahong Meditech Co., Ltd., priority 2019, published 2022).
# Key:
# [1] = biological target: T1, methionine aminopeptidase MetAP2 (Homo sapiens, UniProt P50579); conditions: vascular endothelial cells
# T1 construct: host or cells: vascular endothelial cells
# [2] = biological target: T2, silence information regulator 2-related enzyme SIRT1 (Homo sapiens, UniProt Q96EB6); conditions: vascular endothelial cells
# T2 construct: host or cells: vascular endothelial cells
# T2 sequence (Q96EB6 1-747): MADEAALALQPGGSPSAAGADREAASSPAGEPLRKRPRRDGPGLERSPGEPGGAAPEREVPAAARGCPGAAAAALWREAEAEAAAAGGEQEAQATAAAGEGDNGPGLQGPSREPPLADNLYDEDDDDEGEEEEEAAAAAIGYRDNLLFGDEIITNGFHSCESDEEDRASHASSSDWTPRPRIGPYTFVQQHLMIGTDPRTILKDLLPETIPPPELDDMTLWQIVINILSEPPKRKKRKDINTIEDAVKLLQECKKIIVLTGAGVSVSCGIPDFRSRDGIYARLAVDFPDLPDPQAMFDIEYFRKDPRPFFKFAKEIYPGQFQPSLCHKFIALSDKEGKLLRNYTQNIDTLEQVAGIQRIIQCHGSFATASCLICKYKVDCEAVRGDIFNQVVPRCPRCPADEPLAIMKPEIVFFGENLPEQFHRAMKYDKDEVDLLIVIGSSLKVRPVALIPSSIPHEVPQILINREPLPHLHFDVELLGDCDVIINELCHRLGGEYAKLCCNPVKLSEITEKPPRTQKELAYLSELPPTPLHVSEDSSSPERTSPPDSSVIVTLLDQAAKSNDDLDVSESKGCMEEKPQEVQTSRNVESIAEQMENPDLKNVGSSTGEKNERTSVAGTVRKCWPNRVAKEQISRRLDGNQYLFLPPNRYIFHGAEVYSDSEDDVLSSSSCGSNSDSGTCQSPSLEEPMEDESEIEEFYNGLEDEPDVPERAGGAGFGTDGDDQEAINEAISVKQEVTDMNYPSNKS
# T1 sequence (P50579 whole entry): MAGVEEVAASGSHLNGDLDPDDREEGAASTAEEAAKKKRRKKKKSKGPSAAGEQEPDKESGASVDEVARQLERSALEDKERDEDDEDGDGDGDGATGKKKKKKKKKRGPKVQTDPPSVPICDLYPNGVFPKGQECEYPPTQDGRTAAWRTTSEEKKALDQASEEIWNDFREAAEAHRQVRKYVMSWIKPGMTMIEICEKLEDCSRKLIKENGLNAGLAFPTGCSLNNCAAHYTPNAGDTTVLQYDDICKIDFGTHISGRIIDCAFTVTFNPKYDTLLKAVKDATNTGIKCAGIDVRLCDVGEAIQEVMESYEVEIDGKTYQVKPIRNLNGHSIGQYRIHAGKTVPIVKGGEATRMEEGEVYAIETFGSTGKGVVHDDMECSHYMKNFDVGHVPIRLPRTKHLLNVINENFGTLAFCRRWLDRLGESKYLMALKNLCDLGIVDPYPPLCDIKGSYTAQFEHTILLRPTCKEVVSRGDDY
compound,measurement,setting,value
"O=[N+]([O-])c1ccc(O)c2ncccc12 [Nitroxoline, 5-nitro-8-hydroxyquinoline]",inhibition of MetAP2,[1],inhibit
same,inhibition of SIRT1,[2],inhibit
